The compound `Cc1c(C)c2c(c(C)c1O)CCC(C)(CCCC(C)CCCC(C)CCCC(C)C)O2` (stereo unspecified) had a melting point of 2.5 to 3.5 °C.
With `O=C1OCCN1N=Cc1ccc([N+](=O)[O-])o1` the figure was 255 °C; with `COC(=O)c1cccc(C(=O)O)c1`, 166 °C; with `Nc1ccc(N2CCCCC2)cc1`, 27 °C.
For `c1ccc2cc(Nc3ccc4ccccc4c3)ccc2c1` the value was 172 °C; for `C=C(Cl)c1ccccc1`, -23 °C.
The compound `C=CCNC(SC)=C(C#N)C#N` gave a melting point of 91 °C.
As for `CC1CC(O)CC(C)(C)C1` (stereo unspecified), the melting point is 55.8 °C.
With `Cc1ccc(C2(C(=O)O)CCCC2)cc1`, the melting point was 181 to 184 °C.
For `O=C(Cc1ccccc1)SSC(=O)Cc1ccccc1` the value was 59 °C; for `Nc1cccc(Cl)n1`, 71 °C.
For `c1ccc(C2CCCNC2)cc1` (stereo unspecified) the value was 14.5 °C; for `O=C(Cl)c1ccc(-n2cccn2)cc1`, 127 to 128 °C; for `C=C1C(=O)C23C4CC5C(C)(C)CCC(OC(C)=O)C5(C)C2C(OC(C)=O)CC1(O)C3OC(C)(C)O4` (stereo unspecified), 246 °C.
Turning to `CCCC1OC2CC3C4CCC5=CC(=O)C=CC5(C)C4C(O)CC3(C)C2(C(=O)CO)O1` (stereo unspecified), the melting point is 226 °C.
`O=[N+]([O-])C=Cc1cccc([N+](=O)[O-])c1`: the melting point was 126 °C.
Consider `COc1ccc2[nH]cc(CCN(C)C)c2c1`, for which the melting point is 69.5 °C.
For `O=C1CC[C@H]2CCc3ccccc3[C@@H]2O1` the value was 138 to 141 °C.
`Cc1ccc(NC(=O)C(C)c2ccc(C)cc2)cc1` (stereo unspecified) displayed a melting point of 105 °C.
With `O=C(O)C=Cc1cc(F)ccc1F`, the melting point was found to be 139 °C.
`CCC1C2CC3C4N(C)c5ccccc5C45CC(C2C5O)N3C1O` (stereo unspecified) came in with a melting point of 159 °C.
With `COC(=O)C(C)N(C(=O)Cc1ccccc1)c1c(C)cccc1C` (stereo unspecified) the figure was 79 °C; with `Cc1ccc(NN=c2c(C)nc3ccccc3[nH]c2=O)cc1`, 179 °C; with `CC1(C)c2ccccc2NC1C(=O)O` (stereo unspecified), 72 to 82 °C.
The compound `CCOC(=O)c1cc(-c2ccccc2)on1` yielded a melting point of 48 to 49.5 °C.
Compound `COC(=O)c1ccc2[nH]ccc2c1` showed a melting point of 125 °C.
With `OCc1cccc(-c2cncnc2)c1` the figure was 65 to 66 °C.
Compound `CC(C)(C)OC(=O)N[C@H](COCc1ccccc1)C(=O)O` came in with a melting point of 61.5 °C.
For `CSc1nn2c(=O)c(C)nnc2s1` the value was 196 °C.
`O=C(NCC1CCCCN1)c1cc(OCC(F)(F)F)ccc1OCC(F)(F)F` (stereo unspecified) had a melting point of 146 °C.
For `CNC1CCC(c2ccc(Cl)c(Cl)c2)c2ccccc21` (stereo unspecified) the value was 244 °C; for `CC12CCC(=O)C(O)=C1CCC1C2CCC2(C)C1CCC2(C)O` (stereo unspecified), 170 °C; for `CC12CC(O)C3C(CCC4CC(O)CCC43C)C1CCC2=O` (stereo unspecified), 235 °C.
Consider `CC1=CCC(C(C)C)=CC1`, for which the melting point was -10 °C.
With `O=C1OC(=O)C2=C1Cc1ccccc1C2`, the melting point fell in the range of 241 to 247 °C.
Compound `CC(=O)OC(C)OC(C)=O` gave a melting point of 18.9 °C.
For `C=CC(C)(CCC=C(C)C)OC(C)=O` (stereo unspecified) the value was less than 25 °C; for `COc1cc(O)cc(O)c1`, 80.3 °C.
`Cc1cccc2c(O)noc12` registered a melting point of 155 to 157 °C.
With `Cc1cc2ccccc2s1` the figure was 52 °C.
As for `O=CC(C=O)c1ccncc1`, the melting point was 320 °C.
Regarding `N#Cc1ccccc1OC1CCOCC1`, the melting point fell in the range of 51 to 55 °C.
Consider `Cc1nc(/C(C#N)=C\c2ccccc2Cl)sc1/N=N/c1ccc(Cl)cc1`, for which the melting point is 198 to 200 °C.
With `NC(=S)c1ccc(Cl)cc1` the figure was 127 to 130 °C.
Compound `OC(CCCN1CCCCC1)(c1ccccc1)c1ccccc1` had a melting point of 104 °C.
Consider `O=C(c1ccccn1)c1ccccn1`, for which the melting point was 53 to 55 °C.
For `CCOC(=O)c1c(NC(=S)Nc2ccc(OC)cc2)sc2c1CCCC2` the value was 163 to 165 °C; for `CCCCC(=O)OCCC`, -70.7 °C.
With `Cc1ccccc1N1CSc2nnc(-c3cccnc3)n2C1` the figure was 202 °C.
For `ON=C(Cc1ccccc1)c1cccc2ccccc12` the value was 150 °C; for `O=C1c2ccccc2C(=O)C1(Br)c1ccccc1`, 106 to 107 °C; for `CN(C)C(=O)OC1=CC(=O)CC(C)(C)C1`, 45.5 °C.
For `Nc1ccccc1Cl`, the melting point is -3 °C.
For `Cc1ccc(C(=O)O)c([N+](=O)[O-])c1O` the value was 186 °C.
With `COc1ccc(CC2c3cc(OC)c(OC)cc3CCN2C)cc1O` (stereo unspecified) the figure was 184 °C; with `Cc1ccc(S(N)(=O)=O)cc1Cl`, 137 °C; with `CO[C@](C(=O)O)(c1ccccc1)C(F)(F)F`, 44 °C.
Compound `COc1ccccc1P(c1ccccc1OC)c1ccccc1OC` showed a melting point of 204 to 208 °C.
In turn, `COC(=O)C(C)Oc1ccc(Oc2ccc(Cl)cc2Cl)cc1` (stereo unspecified) showed a melting point of 44 °C.
Compound `C=CCn1c2c(c3cc(OC)ccc31)CCc1cc(OC)ccc1-2` gave a melting point of 92 to 93 °C.
Compound `Cc1ccc(-c2csc(/C(C#N)=N\Nc3cc(Cl)ccc3Cl)n2)cc1` came in with a melting point of 187 °C.
With `CCC(=O)CC#N` the figure was 29 °C; with `O=C(O)CF`, 35.2 °C.
`Cc1cc(Oc2ccc(C(N)=NO)cc2[N+](=O)[O-])cc(C)c1Cl` displayed a melting point of 183 to 185 °C.
With `Nc1cc(N)c(/C=C/c2ccccc2)c([N+](=O)[O-])c1C=Cc1ccccc1` the figure was 175 °C; with `Cc1cccc(C(=O)C(=O)c2ccccc2)n1`, 76.8 °C; with `O=C(O)c1ccc2nsnc2c1`, 229 to 231 °C.
With `O=C(O)c1sccc1Cl` the figure was 186 °C; with `CCN1C(=O)NC(c2ccccc2)C1=O` (stereo unspecified), 94 °C; with `CCCCOC(=O)CCC(=O)OCCCC`, -29.2 °C.
For `Cc1cc(=O)n(N)c(=S)[nH]1`, the melting point is 262 °C.
For `O=C(O)C1NCCS1` (stereo unspecified) the value was 182 °C; for `Fc1c(F)c(F)c(P(CCP(c2c(F)c(F)c(F)c(F)c2F)c2c(F)c(F)c(F)c(F)c2F)c2c(F)c(F)c(F)c(F)c2F)c(F)c1F`, 190 to 195 °C.
As for `O=CC(Br)(Br)Br`, the melting point was -57.5 °C.
In turn, `Nc1ccc(Cl)cc1O` returned a melting point of 152 to 157 °C.
For `Nc1ccc2c(c1)OCCCO2` the value was 81 to 82 °C.
The compound `COc1ccc2c3c1OC1C(O)CC=C4C(C2)N(C)CCC431` (stereo unspecified) yielded a melting point of 128 °C.
With `CC1=C(C#N)C(c2cccc([N+](=O)[O-])c2)C(C(=O)OCCN(C)C)=C(C)N1` (stereo unspecified) the figure was 72 to 73 °C; with `CC(=O)C(F)(F)F`, -78 °C.
With `Cc1cc([N+](=O)[O-])cnc1Cl` the figure was 78 to 80 °C; with `N[C@@H](Cc1ccc(OCc2ccccc2)cc1)C(=O)O`, 259 °C.
`c1ccc(-c2sc(-c3ccccc3)c(-c3ccccc3)c2-c2ccccc2)cc1` came in with a melting point of 182 °C.
Compound `CC12CCCC1C1CCC3CC4(CCC3(C)C1CC2)OCCO4` (stereo unspecified) yielded a melting point of 117 °C.
For the compound `O=C(O)c1ccc(CN2CCCCC2)cc1`, the melting point was in the range of 286 to 293 °C.
As for `C[C@]12CC[C@H]3O[C@H]3[C@@H]1CC[C@@H]1[C@@H]2CC[C@]2(C)C(=O)CC[C@@H]12`, the melting point came to 158 °C.
With `Nc1n[nH]c(N)c1Cc1ccccc1` the figure was 148 to 149 °C.
Compound `NC(=O)/C(=N\Nc1c(Cl)cccc1Cl)c1nc2ccccc2s1` came in with a melting point of 175 °C.
With `C=CCC1(O)CCC2C3CCC4=CCCCC4C3CCC21C` (stereo unspecified) the figure was 80 °C; with `ON=CC1=C(C#Cc2ccccc2)CCC1`, 105 to 106 °C.
Compound `Cn1nc(C2CC2)cc1N` came in with a melting point of 120 to 123 °C.
For `CC(O)Cn1cnc2c1c(=O)n(C)c(=O)n2C` (stereo unspecified) the value was 136 °C; for `CCSC(SCC)C(O)C(O)C(O)CO` (stereo unspecified), 127 °C; for `N#Cc1ccc(C(F)(F)F)cc1[N+](=O)[O-]`, 44 °C.
For `CC(C)C1=CC2=C(CC1)C1(C)CCCC(C)(C(=O)O)C1CC2` (stereo unspecified) the value was 164 °C; for `CC(C)(C)OC(=O)N1CCN(CCO)CC1`, 39 to 43 °C.
For `CC(CCC(=O)O)C1CCC2=C3CCC4CC(O)CCC4(C)C3CC(O)C21C` (stereo unspecified) the value was 172 °C; for `FC(F)(F)C(F)(F)C(F)(F)C(F)(C(F)(F)F)C(F)(F)F`, -119 °C.
Take `Cc1ccc(C=O)cc1[N+](=O)[O-]`: the melting point was 46 °C.
With `CCOC(=O)C(C)(/C=C1\C(=O)C2(C)CCC1C2(C)C)/C=C1\C(=O)C2(C)CCC1C2(C)C` (stereo unspecified) the figure was 118 °C; with `CCOC(=O)c1c(-c2ccccc2)csc1NC(=O)CN(CC)CC`, 93 to 94 °C; with `O=C(O)c1ccc(-c2csnn2)cc1`, 230 °C.
`COC(=O)Cn1ccnc1[N+](=O)[O-]`: the melting point was 96 °C.
For `C[Si](C)(Cl)O[Si](C)(C)Cl` the value was -37.5 °C.
`Oc1ccc(Br)c(Cl)c1`: the melting point was 66 °C.
Regarding `CC(=O)NC1CCSC1=O` (racemic), the melting point was found to be 110 °C.
With `CCN(CC)c1nc(C)cc(OP(=S)(OC)OC)n1` the figure was 21 °C; with `O=C=NS(=O)(=O)Cl`, -44 °C; with `CC(=O)Nc1ccc(C(F)(F)F)cc1N`, 141 to 143 °C.
With `C=CCCCC=C` the figure was -129 °C; with `O=C(Nc1ccc(O)cc1)c1ccccc1O`, 179 °C; with `COc1ccc2c(c1)CCc1c-2[nH]c2ccc(OC)cc12`, 194 to 196 °C.

The melting point is the temperature, or range, at which the solid turns liquid.

The values above are taken from a melting point compilation (Tetko et al.).
